Laboratory results taken from the NIST ThermoML archive (doi:10.1021/je034048e).

Assay: molar heat capacity at constant pressure
Details: 101.33 kPa

CCCCCCCC/C=C/CCCCCCCC(=O)OCC(COC(=O)CCCCCCC/C=C/CCCCCCCC)OC(=O)CCCCCCC/C=C/CCCCCCCC [trielaidin]
Small (less than 1 g) adiabatic calorimetry
Details	molar heat capacity at constant pressure [J/K/mol]
8.85 K, Metastable crystal	2.656
9.73 K, Metastable crystal	8.854
10.55 K, Metastable crystal	11.51
11.43 K, Metastable crystal	19.48
12.54 K, Metastable crystal	24.79
13.08 K, Metastable crystal	28.33
14.42 K, Metastable crystal	36.3
14.92 K, Metastable crystal	40.73
16.44 K, Metastable crystal	50.47
16.93 K, Metastable crystal	56.67
18.55 K, Metastable crystal	70.83
18.95 K, Metastable crystal	75.26
20 K, Crystal	79.69
20 K, Metastable crystal	88.54
20.71 K, Metastable crystal	89.43
21.09 K, Metastable crystal	93.86
22.99 K, Metastable crystal	110.68
23.34 K, Metastable crystal	113.34
25 K, Crystal	115.11
25 K, Metastable crystal	123.96
25.34 K, Metastable crystal	130.16
25.67 K, Metastable crystal	134.59
27.78 K, Metastable crystal	148.75
28.07 K, Metastable crystal	150.52
30 K, Crystal	168.23
30 K, Metastable crystal	168.23
30.29 K, Metastable crystal	168.23
30.55 K, Metastable crystal	171.77
31.33 K, Metastable crystal	184.17
31.83 K, Metastable crystal	196.57
33.13 K, Metastable crystal	197.45
33.17 K, Metastable crystal	195.68
35 K, Crystal	203.65
35 K, Metastable crystal	212.5
35.4 K, Metastable crystal	219.59
37.51 K, Metastable crystal	236.41
39.64 K, Metastable crystal	254.12
40 K, Crystal	247.92
40 K, Metastable crystal	256.78
41.87 K, Metastable crystal	272.71
44.15 K, Metastable crystal	292.19
45 K, Crystal	292.19
45 K, Metastable crystal	301.05
46.49 K, Metastable crystal	312.56
48.88 K, Metastable crystal	332.92
50 K, Crystal	327.61
50 K, Metastable crystal	345.32
51.31 K, Metastable crystal	350.63
53.78 K, Metastable crystal	370.11
55 K, Crystal	371.88
55 K, Metastable crystal	380.74
56.3 K, Metastable crystal	393.13
58.84 K, Metastable crystal	412.61
60 K, Crystal	407.3
60 K, Metastable crystal	416.15
61.42 K, Metastable crystal	425.89
65 K, Crystal	442.72
65 K, Metastable crystal	451.57
66.67 K, Metastable crystal	466.62
69.33 K, Metastable crystal	480.79
70 K, Crystal	469.28
70 K, Metastable crystal	486.99
72.01 K, Metastable crystal	500.27
74.71 K, Metastable crystal	516.21
75 K, Crystal	504.7
75 K, Metastable crystal	522.4
77.43 K, Metastable crystal	531.26
80 K, Crystal	531.26
80 K, Metastable crystal	548.97
80.16 K, Metastable crystal	548.08
82.91 K, Metastable crystal	563.13
85 K, Crystal	557.82
85 K, Metastable crystal	575.53
85.67 K, Metastable crystal	580.84
88.45 K, Metastable crystal	595.01
90 K, Crystal	584.39
90 K, Metastable crystal	602.09
91.24 K, Metastable crystal	610.06
94.03 K, Metastable crystal	625.12
95 K, Crystal	610.95
95 K, Metastable crystal	628.66
96.84 K, Metastable crystal	639.28
99.66 K, Metastable crystal	654.33
100 K, Crystal	637.51
100 K, Metastable crystal	655.22
100.5 K, Metastable crystal	656.99
103.85 K, Metastable crystal	678.24
105 K, Crystal	655.22
105 K, Metastable crystal	681.78
106.65 K, Metastable crystal	689.75
109.51 K, Metastable crystal	701.26
110 K, Crystal	672.93
110 K, Metastable crystal	708.35
112.39 K, Metastable crystal	714.54
115.27 K, Metastable crystal	726.94
118.14 K, Metastable crystal	740.22
120 K, Crystal	717.2
120 K, Metastable crystal	752.62
121.03 K, Metastable crystal	753.5
123.91 K, Metastable crystal	765.9
126.79 K, Metastable crystal	778.29
129.68 K, Metastable crystal	792.46
130 K, Crystal	761.47
130 K, Metastable crystal	796.89
132.57 K, Metastable crystal	805.74
135.47 K, Metastable crystal	812.83
138.36 K, Metastable crystal	826.99
140 K, Crystal	788.03
140 K, Metastable crystal	832.31
141.26 K, Metastable crystal	842.93
144.16 K, Metastable crystal	850.01
147.07 K, Metastable crystal	864.18
149.97 K, Metastable crystal	875.69
150 K, Crystal	823.45
150 K, Metastable crystal	876.58
152.88 K, Metastable crystal	887.2
155.78 K, Metastable crystal	906.68
158.69 K, Metastable crystal	917.31
160 K, Crystal	867.72
160 K, Metastable crystal	920.85
161.6 K, Metastable crystal	932.36
164.51 K, Metastable crystal	946.53
167.42 K, Metastable crystal	962.46
170 K, Crystal	912
170 K, Metastable crystal	973.98
170.34 K, Metastable crystal	977.52
176.16 K, Metastable crystal	1009.4
179.08 K, Metastable crystal	1022.7
180 K, Crystal	947.41
180 K, Metastable crystal	1027.1
181.99 K, Metastable crystal	1043
184.9 K, Metastable crystal	1066.1
187.79 K, Metastable crystal	1080.2
190 K, Crystal	991.68
190 K, Metastable crystal	1097.9
190.66 K, Metastable crystal	1104.1
193.5 K, Metastable crystal	1125.4
196.32 K, Metastable crystal	1147.5
199.11 K, Metastable crystal	1169.7
200 K, Crystal	1036
200 K, Metastable crystal	1177.6
201.89 K, Metastable crystal	1191.8
204.65 K, Metastable crystal	1213.9
207.38 K, Metastable crystal	1237.8
210 K, Crystal	1071.4
210 K, Metastable crystal	1257.3
210.1 K, Metastable crystal	1260
212.79 K, Metastable crystal	1280.3
215.47 K, Metastable crystal	1303.4
218.13 K, Metastable crystal	1322.8
220 K, Crystal	1115.6
220 K, Metastable crystal	1337
220.78 K, Metastable crystal	1343.2
223.41 K, Metastable crystal	1362.7
226.02 K, Metastable crystal	1384.8
228.62 K, Metastable crystal	1405.2
230 K, Crystal	1159.9
230 K, Metastable crystal	1416.7
231.2 K, Metastable crystal	1423.8
233.77 K, Metastable crystal	1443.3
236.32 K, Metastable crystal	1463.6
238.87 K, Metastable crystal	1484
240 K, Crystal	1213
240 K, Metastable crystal	1496.4
241.4 K, Metastable crystal	1503.5
243.91 K, Metastable crystal	1523.8
246.41 K, Metastable crystal	1545.1
248.9 K, Metastable crystal	1565.4
250 K, Crystal	1266.2
250 K, Metastable crystal	1576.1
251.38 K, Metastable crystal	1586.7
253.84 K, Metastable crystal	1607.9
256.3 K, Metastable crystal	1629.2
258.74 K, Metastable crystal	1653.1
260 K, Crystal	1319.3
260 K, Metastable crystal	1664.6
261.18 K, Metastable crystal	1675.2
263.6 K, Metastable crystal	1697.4
266.01 K, Metastable crystal	1717.7
268.41 K, Metastable crystal	1732.8
270 K, Crystal	1390.1
270 K, Metastable crystal	1744.3
270.81 K, Metastable crystal	1742.5
273.2 K, Metastable crystal	1738.1
280 K, Crystal	1469.8
280 K, Metastable crystal	1815.1
288 K, Crystal	1549.5
288 K, Metastable crystal	1886
290 K, Crystal	1558.4
298.15 K, Crystal	1646.9
300 K, Crystal	1673.5
310 K, Crystal	1762
314.83 K, Crystal	1806.3
314.83 K, Liquid	1877.1
317.71 K, Liquid	1884.2
318.99 K, Liquid	1886.9
320 K, Liquid	1894.8
320.03 K, Liquid	1891.3
321 K, Liquid	1895.7
322.34 K, Liquid	1893.9
323.01 K, Liquid	1896.6
324.66 K, Liquid	1901.9
325.03 K, Liquid	1902.8
326.98 K, Liquid	1907.2
327.05 K, Liquid	1906.3
329.07 K, Liquid	1911.6
329.29 K, Liquid	1913.4
330 K, Liquid	1912.5
331.09 K, Liquid	1916.1
331.61 K, Liquid	1918.7
333.11 K, Liquid	1918.7
333.92 K, Liquid	1922.3
335.13 K, Liquid	1922.3
336.24 K, Liquid	1926.7
337.15 K, Liquid	1926.7
338.55 K, Liquid	1932.9
339.17 K, Liquid	1933.8
340.87 K, Liquid	1940.9
343.19 K, Liquid	1946.2
345.51 K, Liquid	1950.6
347.83 K, Liquid	1954.1
350.15 K, Liquid	1963

Crystal
Details	molar heat capacity at constant pressure [J/K/mol]
10.52 K	3.542
11.9 K	8.854
12.76 K	23.91
14.41 K	29.22
16.16 K	44.27
17.98 K	59.32
19.96 K	75.26
22.02 K	93.86
24.22 K	111.56
26.5 K	130.16
28.88 K	149.64
35.94 K	215.16
38.34 K	255
40.46 K	267.4
42.73 K	264.74
45.11 K	290.42
47.47 K	311.67
49.86 K	329.38
52.29 K	347.97
54.77 K	367.45
57.28 K	389.59
59.83 K	409.07
62.4 K	409.96
65.01 K	435.63
67.64 K	457.77
70.3 K	473.71
72.97 K	489.64
75.67 K	503.81
78.39 K	521.52
81.12 K	535.69
83.86 K	550.74
86.62 K	565.79
89.39 K	580.84
92.18 K	595.01
95.56 K	609.18
99.01 K	629.54
104.65 K	654.33
107.48 K	666.73
110.32 K	677.36
113.16 K	689.75
116 K	701.26
118.85 K	713.66
121.7 K	725.17
124.56 K	734.02
127.41 K	742.88
130.27 K	758.82
133.13 K	766.78
135.99 K	775.64
138.85 K	786.26
141.71 K	796
144.57 K	804.86
147.42 K	815.48
150.23 K	826.99
153.02 K	837.62
155.77 K	850.01
158.51 K	861.53
161.21 K	871.27
163.89 K	883.66
166.55 K	893.4
169.18 K	904.91
171.79 K	914.65
174.38 K	927.05
176.95 K	936.79
179.5 K	947.41
182.03 K	958.04
184.54 K	970.43
187.03 K	978.4
189.51 K	989.03
191.97 K	998.77
194.42 K	1008.5
196.84 K	1020
199.25 K	1028.9
201.65 K	1037.7
206.39 K	1058.1
208.74 K	1067.8
211.08 K	1077.6
213.41 K	1087.3
215.72 K	1097.9
218.01 K	1108.6
220.3 K	1117.4
222.57 K	1127.2
224.83 K	1137.8
227.07 K	1149.3
229.31 K	1160.8
231.53 K	1169.7
233.74 K	1180.3
235.94 K	1190.9
238.13 K	1201.5
240.31 K	1212.2
242.48 K	1222.8
244.64 K	1235.2
246.79 K	1245.8
248.93 K	1256.4
251.06 K	1268.8
253.19 K	1279.4
255.3 K	1292.7
257.41 K	1305.1
259.5 K	1320.2
261.59 K	1332.6
263.67 K	1345.9
265.75 K	1360.9
267.81 K	1374.2
269.86 K	1389.2
271.91 K	1403.4
273.95 K	1419.3
275.98 K	1437.9
278 K	1454.8
280.02 K	1471.6
282.03 K	1489.3
284.04 K	1509.7
288.03 K	1543.3
290.02 K	1560.1
292 K	1580.5
293.98 K	1601.7
295.95 K	1622.1
297.92 K	1646.9
299.88 K	1669.9
301.84 K	1708.9
303.79 K	1742.5
305.74 K	1795.7
307.67 K	1890.4
309.58 K	2118.8
